Assay results as given in patent publication US5523403A, “Tropone-substituted phenyloxazolidinone antibacterial agents” (The Upjohn Company, priority 1995, dated 1996).
Values after ≈ are worked out from the molar mass of the structure shown.

Legend:
[1] = tested on: Staphylococcus aureus UC ® 9213; assay: in vitro antibacterial activity, Minimum Inhibitory Concentration, Staphylococcus aureus; settings: Staphylococcus aureus, UC9213, read-out: Minimum Inhibitory Concentration
[2] = tested on: Streptococcus pyogenes UC ® 152; assay: in vitro antibacterial activity, Minimum Inhibitory Concentration, Streptococcus pyogenes; settings: Streptococcus pyogenes, UC152, read-out: Minimum Inhibitory Concentration

| Structure (SMILES) | MIC [1] | MIC [2] |
| --- | --- | --- |
| CCOc1ccc(-c2ccc(N3CC(CNC(C)=O)OC3=O)cc2)ccc1=O (racemic) [Compound 22, (±)-N-[[3-[4-(4-ethoxy-5-oxo-1,3,6-cycloheptatrien-1-yl]phenyl]-2-oxo5-oxazolidinyl]methyl]-acetamide] | 4 µg/mL (≈ 10.5 µM) | 0.5 µg/mL (≈ 1.31 µM) |
| CCN(CC)c1ccc(-c2ccc(N3CC(CNC(C)=O)OC3=O)cc2)ccc1=O (racemic) [Compound 2, (±)-N[[3-[4-(4-diethylamino-5-oxo-1,3,6-cycloheptatrien-1-yl)phenyl]-2-oxo-5-oxazolidinyl]methyl]-acetamide] | 4 µg/mL (≈ 9.77 µM) | 1 µg/mL (≈ 2.44 µM) |
| CC(=O)NCC1CN(c2ccc(-c3ccc(OC(C)C)c(=O)cc3)cc2)C(=O)O1 (racemic) [Compound 24, (±)-N[[3-[4-[4-(1-methylethoxy)-5-oxo-1,3,6-cycloheptatrien-1-yl]phenyl]-2-oxo-5-oxazolidinyl]methyl]-acetamide] | 4 µg/mL (≈ 10.1 µM) | 1 µg/mL (≈ 2.52 µM) |
| COc1cc(-c2ccc(N3CC(CNC(C)=O)OC3=O)cc2)cccc1=O (racemic) [Compound 21, (±)-N-[[3-[4-(6-methoxy-5-oxo-1,3,6-cycloheptatrien-1-yl]phenyl]-2-oxo5-oxazolidinyl]methyl]-acetamide] | 64 µg/mL (≈ 174 µM) | 8 µg/mL (≈ 21.7 µM) |
| CC(=O)NCC1CN(c2ccc(-c3cccc(N4CCOCC4)c(=O)c3)cc2)C(=O)O1 (racemic) [Compound 27, (±)-N-[]3-[4-4-(4-morpholinyl)-3-oxo-1,4,6-cycloheptatrien-1-yl]phenyl]-2-oxo-5-oxazolidinyl]methyl]-acetamide] | 4 µg/mL (≈ 9.45 µM) | 1 µg/mL (≈ 2.36 µM) |
